This is an account of results in article PMC5434815, “The role of histidines in amyloid β fibril assembly” (Febs Letters, 2017).

Several values for one entry are separate records, joined by “and”; a condition that tells them apart may be missing. Identical values can stand only once. Like-named read-outs stand apart in the source and are kept apart here. Where only a bound is given, the exact number is not on record here.

Test [1] addresses Amyloid β 1–40 H6A, H13A, H14A. Nature of the test: SPR; preformed fibrils immobilised on a CM5 chip by amine coupling (3500 RU), probed with monomers of the same variant; monomer onto fibril end; 25 °C, 20 μL/min, 20 mM phosphate pH 7.4, 150 mM NaCl; slow phase of dissociation only; KD = RD/RA x KD of Aβ1-40 wt (100 nM, from earlier work). On the technique in general: SPR reads the build-up and loss of mass on a sensor chip optically.

Test [2] addresses Amyloid β 1–40 H6A, H13A, H14A. Nature of the test: SPR; preformed fibrils immobilised on a CM5 chip by amine coupling (3500 RU), probed with monomers of the same variant; monomer onto fibril end; 25 °C, 20 μL/min, 20 mM acetate pH 5.5, 150 mM NaCl; slow phase of dissociation only; KD = RD/RA x KD of Aβ1-40 wt (1 nM, from earlier work).
Test [3] addresses Amyloid β 1–40 H13A. Briefly: SPR; preformed fibrils immobilised on a CM5 chip by amine coupling (3500 RU), probed with monomers of the same variant; monomer onto fibril end; 25 °C, 20 μL/min, 20 mM phosphate pH 7.4, 150 mM NaCl; slow phase of dissociation only; KD = RD/RA x KD of Aβ1-40 wt (100 nM, from earlier work).
The target in test [4] is Amyloid β 1–40 H13A. Briefly: SPR; preformed fibrils immobilised on a CM5 chip by amine coupling (3500 RU), probed with monomers of the same variant; monomer onto fibril end; 25 °C, 20 μL/min, 20 mM acetate pH 5.5, 150 mM NaCl; slow phase of dissociation only; KD = RD/RA x KD of Aβ1-40 wt (1 nM, from earlier work).
Test [5] deals with Amyloid β 1–40 H14A. Nature of the test: SPR; preformed fibrils immobilised on a CM5 chip by amine coupling (3500 RU), probed with monomers of the same variant; monomer onto fibril end; 25 °C, 20 μL/min, 20 mM phosphate pH 7.4, 150 mM NaCl; slow phase of dissociation only; KD = RD/RA x KD of Aβ1-40 wt (100 nM, from earlier work).
For test [6], the target named is Amyloid β 1–40 H14A. Briefly: SPR; preformed fibrils immobilised on a CM5 chip by amine coupling (3500 RU), probed with monomers of the same variant; monomer onto fibril end; 25 °C, 20 μL/min, 20 mM acetate pH 5.5, 150 mM NaCl; slow phase of dissociation only; KD = RD/RA x KD of Aβ1-40 wt (1 nM, from earlier work).
Test [7] relates to corresponding immobilised fibrils (fibrillar form of Aβ). Nature of the test: SPR dissociation rate k(off) of Aβ fibrils, slow phase, relative to Aβ1–40 wt. The format is binding. To be noted: for RD, relative dissociation (k(off) versus Aβ1–40 wt): 150 mM NaCl, 25 °C, after 2 μM monomer injection, slow phase, points before 100 s excluded, one exponential decay, Aβ1–40 wt = 1. On the procedure: (§1) Recombinant variants of Aβ1–40, Aβ1–40 H6A, Aβ1–40 H13A, Aβ1–40 H14A and Aβ1–40 H6A, H13A, H14A were obtained from AlexoTech (Umeå, Sweden). All lyophilised peptides were solubilised in 20 mM NaOH and separated by size‐exclusion chromatography (Superdex 10/300, GE Life Science, Uppsala, Sweden) in PBS with 2 mM EDTA, 5 mM NaOH and 150 mM NaCl. The pH of all purified peptide solutions was adjusted using a stock solution of phosphate or acetate buffer to give a final buffer concentration corresponding to 20 mM phosphate (pH 7.4) or acetate (pH 5.5) and 150 mM NaCl.
(§2) The interaction study between the fibrillar form of Aβ and its monomeric form was performed using a BIAcore® 3000 biosensor (GE Healthcare®, Uppsala, Sweden) equipped with a CM5 sensor chip (GE Healthcare®). First, the fibrillar form of Aβ was immobilised at a density of 3500 response units (RUs) on the dextran layer of the chip using standard amino coupling reagents at pH 4.0. All SPR experiments were performed at 25 °C at a flow rate of 20 μL·min^−1 in either a 20 mM phosphate buffer (pH 7.4) or 20 mM acetate buffer (pH 5.5). All experiments were performed in the presence of 150 mM NaCl, which represents a physiological ion‐strength.
(§3) All sensograms were corrected for nonspecific interactions using a reference surface according to standard procedures 16.
Note that the dissociation phase exposes a biphasic curvature. This is highly representative and frequently observed when performing these kinds of experiments. […] All analyses of decay rates within this work are therefore exclusively focused on the slower second phase of dissociation.
In contrast to the association rate, kon, the rate of dissociation, koff, is independent of the concentration of monomers. Subsequent to probing, the immobilised fibrils with free monomers, the rate of dissociation can be seen as a decrease in the signal over time.
Because the latter part of the curve, representing the slower phase of dissociation (indicated by arrow 3 Fig. 1), strongly dominates the interaction strength, we have exclusively focused on this part, and no points before 100 s were included in the curve. The dissociation curve could then be fitted to a one exponential decay.

Test [8] deals with immobilised Aβ fibrils / fibrillar end. Nature of the test: Fibril stability (KD, RD/RA, potentiation factor) from SPR association and dissociation. The format is binding. To be noted: 25 °C, relative to Aβ1–40 wt. The procedure: as §2, §3
While a simple interaction between, for example, a receptor and ligand can easily be determined through saturation experiments, this cannot be done with polymers since they, per definition, cannot be saturated.
This problem can, however, be circumvented by defining the concentration of free monomers where the fibrils are at steady state, i.e. the concentration of free monomers where neither association nor dissociation can be detected. We have previously shown that the KD for Aβ1–40 wt at neutral pH is around 100 nM and around 1 nM at pH 5.5 11, 13. The KD at neutral pH has also been investigated by Hasegawa and co‐workers 14 with similar results. All figures used here are therefore given as relative values to the KD for Aβ1–40 wt corresponding to 100 nM at neutral pH and 1 nM at pH 5.5.
Multiplying the relative RD/RA with the KD for Aβ 1–40 wt will then give the KD for the histidine derivatives.

The subject of test [9] is corresponding immobilised fibrils (fibrillar form of Aβ). Nature of the test: SPR association rate k(on) of Aβ monomers onto immobilised fibrils, relative to Aβ1–40 wt. The format is binding. The conditions noted are these: for RA, relative association (k(on) versus Aβ1–40 wt): 150 mM NaCl, 25 °C, 20 μL·min^−1, CM5 chip, fibrils at 3500 RU, end state after 60 s injection, Aβ1–40 wt = 1. On the procedure: as §1, §2
Due to the polymeric nature of amyloid fibrils, the covalent immobilisation on the sensor chip, likely only occurs in minor fraction of the accessible amino groups. This treatment is therefore not anticipated to influence the overall incorporation of monomers in a significant manner. However, the influence from using immobilised fibrils or the dextran layer cannot be fully excluded and should therefore be disclosed.
as §3
Probing free monomeric Aβ against immobilised fibrils using SPR is a frequently used technique for measuring the intrinsic kinetic properties of Aβ polymerisation 11, 14, 17, 18, 19.
Fibrils from recombinant variants of Aβ1–40, Aβ1–40 H6A, Aβ1–40 H13A, Aβ1–40 H14A and Aβ1–40 H6A, H13A, H14A were prepared by prolonged incubation in either PBS (pH 7.4) or acetate buffer pH 5.5 containing 150 mM NaCl. Fibrils immobilised on a CM5 chip were then probed with their monomeric counterpart at different concentrations of Aβ monomers and analysed by SPR. Samples were injected for exactly 60 s and the maximal value at the end state of each injection (indicated by arrow 1 in Fig. 1A) was plotted as a function of the monomeric concentration, Fig. 2. This generates an association rate at each point of measurement. A guideline is given in the figures to illustrate the linearity.
By comparing the rate between the different Aβ variants, it is possible to determine relative differences in k(on).

Test [10] has as its target immobilised Aβ fibrils / fibrillar end. To be noted: cited from earlier work. The source says: Table 1 Relative change of association and dissociation rates of Aβ1–40 wt and the His‐Ala Aβ variants, and the potentiation of Aβ fibril formation as a function of lowering the pH. RA, Relative association; RD, Relative dissociation; PnF, Potentiation factor KD(pH7.4)/KD(pH5.5) | column: pH 7.4 / KD (nM); pH 5.5 / KD (nM) || The formation of Aβ fibrils requires an initial nucleation event, and fibril elongation involves the addition of monomers to an existing fibril. […] The KD for Aβ1–40 can be as much as 120 times lower at pH 4.5 than pH 7.4. […] It is therefore of interest to elucidate the stabilising factors associated with fibril stability and the potentiating ... || (+ 3 further places)

In test [1], “Amyloid β 1–40 H6A, H13A, H14A (peptide)” returned a Kd of 1230 nM, an RA (association rate relative to Aβ1-40 wt) of 0.22 and an RD (dissociation rate relative to Aβ1-40 wt) of 2.7. In [2], this substance registered a Kd of 5.31 nM, an RA (association rate relative to Aβ1-40 wt) of 1.57 and an RD (dissociation rate relative to Aβ1-40 wt) of 8.33.
Amyloid β 1–40 H13A (peptide): in test [3], the Kd is 716 nM, the RA (association rate relative to Aβ1-40 wt) came out at 0.31 and the RD (dissociation rate relative to Aβ1-40 wt) amounted to 2.22. In test [4], this substance came in with a Kd of 2.11 nM, an RA (association rate relative to Aβ1-40 wt) of 1.01 and an RD (dissociation rate relative to Aβ1-40 wt) of 2.13.
For Amyloid β 1–40 H14A (peptide), in test [5], the Kd was determined as 794 nM, the RA (association rate relative to Aβ1-40 wt) amounted to 0.34 and the RD (dissociation rate relative to Aβ1-40 wt) is 2.7. In test [6], this substance registered a Kd of 2.19 nM, an RA (association rate relative to Aβ1-40 wt) of 1.01 and an RD (dissociation rate relative to Aβ1-40 wt) of 2.22.
Turning to Aβ1–40 H6A, the “RD, relative dissociation (k(off) versus Aβ1–40 wt)” value (“RD, relative dissociation” for short) in test [7] (pH 5.5, 20 mM acetate) amounted to 2.78; in test [7] (pH 7.4, 20 mM phosphate), 1.92. Also, the RD/RA was 1.43 in test [8] (pH 5.5, 150 mM NaCl) and 4.27 in test [8] (pH 7.4, 150 mM NaCl). For the same substance, the “RA, relative association (k(on) versus Aβ1–40 wt)” value (“RA, relative association” below) was determined as 1.94 in test [9] (pH 5.5, 20 mM acetate) and 0.45 in test [9] (pH 7.4, 20 mM phosphate).
As to “Aβ1–40 H6A, H13A, H14A: recombinant Aβ1–40 variant where all three histidines have been exchanged for alanine (DAEFRADSGYEVAAQKLVFFAEDVGSNKGAIIGLMVGGVV; Amyloid-beta protein 40; UniProt P05067 672-711, looked up, variant H6A H13A H14A)”, the “RD, relative dissociation” value in [7] (pH 5.5, 20 mM acetate) is listed as 8.33; in test [7] (pH 7.4, 20 mM phosphate) it was 2.70. Further, the RD/RA in [8] (pH 5.5, 150 mM NaCl) amounted to 5.31; in test [8] (pH 7.4, 150 mM NaCl), 12.27. In addition, the “RA, relative association” value came to 1.57 in [9] (pH 5.5, 20 mM acetate) and 0.22 in test [9] (pH 7.4, 20 mM phosphate).
Consider Aβ1–40 H13A, for which the “RD, relative dissociation” value in [7] (pH 5.5, 20 mM acetate) is 2.13; in [7] (pH 7.4, 20 mM phosphate), 2.22. Also, the RD/RA in test [8] (pH 5.5, 150 mM NaCl) is reported as 2.11; in test [8] (pH 7.4, 150 mM NaCl), 7.16. Also, the “RA, relative association” value in test [9] (pH 5.5, 20 mM acetate) was 1.01; in test [9] (pH 7.4, 20 mM phosphate), 0.31.
Aβ1–40 H14A: the “RD, relative dissociation” value in [7] (pH 5.5, 20 mM acetate) is given as 2.22; in [7] (pH 7.4, 20 mM phosphate) it was 2.70. In addition, the RD/RA in test [8] (pH 7.4, 150 mM NaCl) is given as 7.94. Also, the “RA, relative association” value in test [9] (pH 5.5, 20 mM acetate) stood at 1.01; in test [9] (pH 7.4, 20 mM phosphate), 0.34.
“Aβ1–40 wt: wild‐type amyloid β 1–40, recombinant, obtained from AlexoTech (Umeå, Sweden) [reference compound]”: the “RD, relative dissociation” value in test [7] (pH 5.5, 20 mM acetate) is recorded as 1; in test [7] (pH 7.4, 20 mM phosphate) it was 1. Also, the “stabilisation / dissociation on lowering the pH, in words” value in test [7] (pH 7.4 to 5.5) is recorded as “significantly stabilised by the decrease in pH”. In addition, the RD/RA was found to be 1 in test [8] (pH 5.5, 150 mM NaCl) and 1 in test [8] (pH 7.4, 150 mM NaCl). Besides, the “RA, relative association” value was 1 in test [9] (pH 5.5, 20 mM acetate) and 1 in test [9] (pH 7.4, 20 mM phosphate). In [9] (pH 5.5 versus pH 7.4), the “rate of association, in words” value was “much faster rate of association”. The Kd in [10] (neutral pH (pH 7.4), reference value for the relative KDs, read-out: KD (critical concentration)) was ~100 nM and 100 nM; in test [10] (neutral pH, read-out: critical concentration (KD)), approximately 100 nM; in [10] (pH 5.5, reference value for the relative KDs, read-out: KD) it was ~1 nM and 1 nM. In addition, the “decrease of KD at pH 4.5 versus pH 7.4 (times lower)” value in [10] (pH 4.5 vs pH 7.4, "as much as") is listed as not above 120 times.
On to “Aβ1–42: one of the two dominant forms of amyloid β”, for which the “critical concentration (KD), in words” value in test [10] (neutral pH, compared with Aβ1–40) is “slightly lower”.
